In US8580321B2, “Method for reducing the effects of chemotherapy using flagellin related polypeptides” (priority 2003, dated 2013):

How the values were obtained:
[1] = test system: NF-κB; assay: NF-κB-regulated luciferase reporter assay in H116 human colon cancer cells; type: cell-based; conditions: for activation of NF-κB-regulated luciferase reporter: H116 cells, luciferase measured six hours after addition
Description: While translocation of NF-κB to the nucleus is a crucial step in induction of NF-κB-regulated inhibitors of apoptosis, it is not sufficient in itself. To directly test the ability of selected fragments to induce expression of NF-κB-regulated genes, we performed reporter assay experiments. Flagellin and the AA′, BB′, A′ and B′ fragments were used for treatment of H116 human colon cancer cells carrying luciferase gene under a NF-κB-responsive promoter. The reporter construct contained three NF-κB-binding sites from the E-selectin promoter combined with a Hsp70 minimal promoter that is routinely used for the detection of NF-κB status of cells. Luciferase activity was measured in cell lysates six hours after addition of flagellin or its truncated fragments into the medium. TNF was used as positive control.
In order to study the ability of the AA′ fragments to directly activate NF-κB-regulated transcription, we performed reporter assay experiments as described above for a wide range of concentrations of flagellin, original AA′ and AA′-derived fragments.

[2] = test system: vascular endothelial cells of villi; assay: TUNEL assay of apoptosis in intestinal tissue after irradiation; type: in vivo, mouse; conditions: 5 hours post irradiation, pretreated mice
Description: In addition to purely histological observation of cell death and survival, we performed more specialized tests of apoptotic cell death in intestinal tissue using a TUNEL assay, which detects apoptosis-associated DNA fragmentation. These experiments allowed us to define with a high degree of probability cellular populations that are depleted by radiation and rescued by flagellin fragment treatment. The earliest radiation-induced alterations detectable in the small intestine after treatment with IR is apoptosis occurring in vascular endothelial cells of villi, which is seen as early as 5 hours post treatment (FIG. 17B). […] Effective protection of endothelial cells of the small intestine by the flagellin fragment may be due to expression of TLR5 in these cells.

[3] = test system: NIH3T3-derived sarcoma and B16 melanoma tumors; assay: Tumor sensitivity to radiation treatment in syngeneic mouse tumor models; type: in vivo
Method: Left Panel: NIH3T3-derived sarcoma cells were injected s.c. in NIH-Swiss mice. When tumors reached 7-10 mm in diameter, mice received three 4.3 Gy doses of total body irradiation, with or without pretreatment with AA′. […] U/t: untreated; AA′: AA′ with no irradiation; 3×4Gy: irradiation only; 3×4Gy+AA′: AA′ and irradiation. (The shape of curves reflects slow growth of tumors that is a characteristic of this model). […] Right Panel: The experiment was done in the same way with another syngeneic mouse tumor model: B16 melanoma (C57BL6 background). Treatment was applied when tumors reached 4-5 mm in diameter and involved three subsequent 4 Gy doses of total body gamma radiation applied with or without pretreatment with AA′ (30 min. before irradiation, 5 μg/mouse).
The ultimate test of a potential radioprotective agent in cancer treatment is tumor selectivity, its ability to protect normal tissues while providing no or little protection to the tumor. We injected 10 NIH-Swiss mice subcutaneously, in both flanks (20 tumors total), with 2×10^6 cells of syngeneic sarcoma cell line model (NIH3T3-derived and spontaneously transformed sarcoma with p53 inactivated by dominant negative inhibitor GSE56). When tumors reached the size of 5-7 mm in diameter (day 5), the mice were injected subcutaneously with 0.2 mg/kg of AA′ or saline vehicle and irradiated 1 hours later with […] of total-body y-irradiation (3×4.3 Gy=12.9 Gy total dose). Injections and irradiations were done at days 5, 6 and 7.

[4] = Pharmacokinetics: plasma levels by sandwich ELISA; type: in vivo, mouse; conditions: ICR mice
Method: Pharmacokinetic parameters (effective concentration and the duration of drug the presence in the organism) may be important for route, dose and time of drug administration. The pharmacokinetics of CBLB502 (AA′) were thus tested for four common routes of injection: intravenous (i.v.), subcutaneous (s.c.), intraperitoneal (i.p.) or intramuscular (i.m.). A radioprotective dose of CBLB502 (AA′), 0.2 mg/kg, was injected in 12-15 week old ICR mice and plasma samples were collected at the specified times after injection (at least 3 mice/point). The levels of CBLB502 in plasma were measured by sandwich ELISA using known concentrations of CBLB502 spiked in the control ICR plasma for calibration.

[5] = test system: small intestinal crypts; assay: BrdU incorporation in small intestinal crypts; type: in vivo, mouse
Description: Besides a direct inhibition of apoptosis, temporary halt of proliferation followed by repair may be an alternative mechanism of radioprotection, and has been described for other radioprotectors such as TGF-β3 (Booth D., et. al., Int J Cancer. 2000 Apr. 1; 86(1):53-9). Accordingly, we decided to examine the possible influence of CBLB502 (AA′) on the proliferative activity of the cells in small intestine (with and without irradiation) during the first hours after its administration (FIG. 32). CBLB502 or PBS was injected i.p. in mice, followed after 30 min by 15 Gy irradiation (if used). 2 hr after injection (1.5 hr after irradiation if it was applied), BrdU was injected intraperitoneally. Samples of small intestine were obtained after additional 1.5 hours.
We next determined the duration of the CBLB502-induced growth arrest in small intestine. CBLB502 or PBS was injected i.p. in mice, BrdU was injected 1 or 4 hours later and samples of small intestine were obtained after additional 1.5 hours from several mice (samples from three mice are shown) (FIG. 33).

[6] = test system: colonic crypts; assay: BrdU incorporation in colonic crypts; type: in vivo, mouse; conditions: BrdU injected 1 hour after CBLB502 i.p.
Method: The colon is much less radiosensitive than small intestine. To further examine the relationship between reduced proliferation in the small intestine and radioprotection, we determined the effect of CBLB502 on BrdU incorporation in the colon. CBLB502 or PBS was injected i.p. in mice, BrdU was injected 1 hour later and samples of […] were obtained after additional 1.5 hours (FIG. 34).

[7] = Cisplatinum-induced weight loss in FVB mice; type: in vivo, mouse; conditions: CBLB502 0.04 mg/kg s.c. 30 min prior to cisplatinum 10 mg/kg i.p., n=3
[8] = test system: NIH Swiss mice treated with cisplatinum
[9] = CBLB502 0.04 mg/kg s.c. 30 min before cisplatinum 20 mg/kg i.p.

AA′: flagellin fragment (1-177)-Linker-(402-505), SEQ ID NO: 8
activation of NF-κB-regulated luciferase reporter [1]: capable of NF-κB activation | level of NF-κB-regulated transcription relative to flagellin ([1]; reporter assay, over the studied range of concentrations): comparable to such of flagellin | NF-κB reporter activity relative to flagellin ([1]; very low concentration range): more active than flagellin | apoptosis in vascular endothelial cells of villi [2]: almost completely blocked | mice cured and surviving radiotherapy plus AA′ ([3]; 3×4.3 Gy with AA′, irradiated-only mice all died by day 18): 100% | tumor growth in unirradiated mice ([3]; AA′ without irradiation): decrease in the growth rate of tumors | radiation-induced shrinkage of tumors ([3]; s.c. 0.2 mg/kg 1 hour before each of 3 irradiations, sarcoma in NIH-Swiss mice): enhanced | effect on radiosensitivity of tumors ([3]; sarcoma and B16 melanoma): no effect | time with significant (>5 ng/ml) levels in mouse plasma ([4]; 0.2 mg/kg intramuscular injection): > 3 h | disappearance from the bloodstream ([4]; 0.2 mg/kg intravenous injection): more rapid disappearance | levels and persistence in plasma by route ([4]; 0.2 mg/kg, intramuscular or intraperitoneal injection): highest levels and longest persistence | incorporation of BrdU in intestine, BrdU after 1 hour ([5]; BrdU injected 1 hour after CBLB502): reduced as compared to control | incorporation/DNA synthesis, BrdU after 4 hr ([5]; BrdU injected 4 hr after CBLB502): even higher than in control | level of BrdU incorporation, irradiated mice ([5]; i.p. 30 min before 15 Gy, NIH-Swiss mice): strongly reduced | DNA synthesis (BrdU incorporation) in crypts, no irradiation ([5]; i.p., BrdU 2 hr after injection, NIH-Swiss mice): nearly undetectable | BrdU incorporation in colon [6]: no effect | mean weight loss compared to cisplatinum alone, FVB mice [7]: lower mean weight loss | mean weight loss on any given day, cisplatinum 10 mg/kg with CBLB502 ([8]; CBLB502 0.04 mg/kg 30 min prior, n=11): ≤ 15% | weight response, cisplatinum 10 mg/kg with CBLB502 ([8]; CBLB502 0.04 mg/kg s.c. 30 min before cisplatinum 10 mg/kg i.p.): not losing weight | maximum weight loss, cisplatinum 20 mg/kg with CBLB502 [8, 9]: ≤ 20% | survival of animals, cisplatinum 20 mg/kg with CBLB502 [8, 9]: 100% | behavior, cisplatinum with single injection of CBLB502 ([8]; FIG. 39D): active animals | deaths, cisplatinum 10 mg/kg with CBLB502 ([8]; FIG. 39 experiment): No deaths | mice that died, cisplatinum 10 mg/kg with CBLB502 ([8]; death at Day 13, remaining mice survived to at least Day 30): one mouse out of eleven

flagellin: Salmonella dublin FliC flagellin, 505 amino acids, SEQ ID NO: 1; recombinant full-length protein
activation of NF-κB-regulated luciferase reporter [1]: capable of NF-κB activation
